Data set [1] concerns the target Lysophosphatidic acid receptor 1 (Homo sapiens, UniProt Q92633). Briefly: Antagonist activity at human LPA1 receptor stably expressed in rat RH7777 cells assessed as reduction in LPA-induced intracellular Ca2+ concentration preincubated for 30 mins followed by LPA addition measured by Fluo-4 probe based fluorescence assay.
Data set [2] has as its target Lysophosphatidic acid receptor 1 (Mus musculus) (UniProt P61793). Nature of the data set: In vivo antagonist activity at LPA1 receptor in C57BL/6J mouse assessed as inhibition of LPA-induced histamine release from mast cells at 100 mg/kg, po administered via gavage and measured after 8 hrs by enzyme immunoassay relative to control. The format is functional, organism-based.

For data set [3], the species on record is Mus musculus. Nature of the data set: animal or person. To be noted: C57BL/6, po, 672 h, read-out: INH.
Description: Anti-fibrotic activity in C57BL/6 mouse model of bleomycin-induced skin fibrosis assessed as inhibition of collagen production by measuring reduction in hydroxyproline content at 100 mg/kg, po administered twice daily via gavage for 28 days measured post last dose relative to control
Data set [4] has as its target Lysophosphatidic acid receptor 1 (Mus musculus) (UniProt P61793). Briefly: In vivo antagonist activity at LPA1 receptor in C57BL/6J mouse assessed as inhibition of LPA-induced histamine release from mast cells at 10 mg/kg, po administered via gavage and measured after 1 hr by enzyme immunoassay relative to control. Type of data set: functional, organism-based.
Data set [5] shares this target. Nature of the data set: In vivo antagonist activity at LPA1 receptor in C57BL/6J mouse assessed as inhibition of LPA-induced histamine release from mast cells at 10 mg/kg, po administered via gavage and measured after 4 hrs by enzyme immunoassay relative to control. The format is functional, organism-based.
Data set [6] in a line: Plasma concentration in LPA-induced C57BL/6J mouse at 10 mg/kg, po administered via gavage and measured after 8 hrs by LC-MS/MS analysis. Type of data set: ADME, organism-based.
Data set [7] in a line: Plasma concentration in LPA-induced C57BL/6J mouse at 100 mg/kg, po administered via gavage and measured after 8 hrs by LC-MS/MS analysis. The format is ADME, organism-based.
The target in data set [8] is Lysophosphatidic acid receptor 1 (Mus musculus) (UniProt P61793). Briefly: In vivo antagonist activity at LPA1 receptor in C57BL/6J mouse assessed as inhibition of LPA-induced histamine release from mast cells at 10 mg/kg, po administered via gavage and measured after 8 hrs by enzyme immunoassay relative to control. The format is functional, organism-based.
Data set [9] can be described thus: Plasma concentration in LPA-induced C57BL/6J mouse at 30 mg/kg, po administered via gavage and measured after 4 hrs by LC-MS/MS analysis. The format is ADME, organism-based.
The species named for data set [10] is Mus musculus. Briefly: animal or person. To be noted: C57BL/6, po, 672 h, read-out: INH. The source holds these as a separate data set.
Description: Anti-fibrotic activity in C57BL/6 mouse model of bleomycin-induced skin fibrosis assessed as inhibition of collagen production by measuring reduction in hydroxyproline content at 30 mg/kg, po administered twice daily via gavage for 28 days measured post last dose relative to control
The test system of data set [11] is Mus musculus. Nature of the data set: Anti-hypertrophic activity in po dosed C57BL/6 mouse model of bleomycin-induced skin fibrosis assessed as reduction in skin thickness administered twice daily via gavage for 28 days measured post last dose by caliper method. The format is functional, organism-based. To be noted: dose 10-100 mg/kg, time 28.0 day.
Data set [12] deals with Mus musculus. Nature of the data set: Anti-fibrotic activity in po dosed C57BL/6 mouse model of bleomycin-induced skin fibrosis assessed as inhibition of collagen production by measuring reduction in hydroxyproline content administered twice daily via gavage for 28 days measured post last dose. Type of data set: functional, organism-based. To be noted: dose 10-100 mg/kg, time 28.0 day.

The nature of data set [13]: Plasma concentration in LPA-induced C57BL/6J mouse at 10 mg/kg, po administered via gavage and measured after 4 hrs by LC-MS/MS analysis. Type of data set: ADME, organism-based.
The nature of data set [14]: Plasma concentration in LPA-induced C57BL/6J mouse at 100 mg/kg, po administered via gavage and measured after 4 hrs by LC-MS/MS analysis. The format is ADME, organism-based.
Data set [15] in a line: Plasma concentration in LPA-induced C57BL/6J mouse at 30 mg/kg, po administered via gavage and measured after 1 hr by LC-MS/MS analysis. Type of data set: ADME, organism-based.
For data set [16], the target named is Lysophosphatidic acid receptor 1 (Mus musculus) (UniProt P61793). Briefly: In vivo antagonist activity at LPA1 receptor in C57BL/6J mouse assessed as inhibition of LPA-induced histamine release from mast cells at 100 mg/kg, po administered via gavage and measured after 1 hr by enzyme immunoassay relative to control. The format is functional, organism-based.

Data set [17] in a line: Plasma concentration in LPA-induced C57BL/6J mouse at 100 mg/kg, po administered via gavage and measured after 1 hr by LC-MS/MS analysis. The format is ADME, organism-based.
In data set [18] the target is Lysophosphatidic acid receptor 1 (Mus musculus) (UniProt P61793). Briefly: In vivo antagonist activity at LPA1 receptor in C57BL/6J mouse assessed as inhibition of LPA-induced histamine release from mast cells at 30 mg/kg, po administered via gavage and measured after 4 hrs by enzyme immunoassay relative to control. Type of data set: functional, organism-based.
For data set [19] the target is unchanged. Briefly: In vivo antagonist activity at LPA1 receptor in C57BL/6J mouse assessed as inhibition of LPA-induced histamine release from mast cells at 100 mg/kg, po administered via gavage and measured after 4 hrs by enzyme immunoassay relative to control. Type of data set: functional, organism-based.
For data set [20] the target is unchanged. Nature of the data set: In vivo antagonist activity at LPA1 receptor in C57BL/6J mouse assessed as inhibition of LPA-induced histamine release from mast cells at 30 mg/kg, po administered via gavage and measured after 1 hr by enzyme immunoassay relative to control. Type of data set: functional, organism-based.
The nature of data set [21]: Plasma concentration in LPA-induced C57BL/6J mouse at 30 mg/kg, po administered via gavage and measured after 8 hrs by LC-MS/MS analysis. The format is ADME, organism-based.
Data set [22] can be described thus: Plasma concentration in LPA-induced C57BL/6J mouse at 10 mg/kg, po administered via gavage and measured after 1 hr by LC-MS/MS analysis. The format is ADME, organism-based.
The target of data set [23] is Lysophosphatidic acid receptor 1 (Mus musculus) (UniProt P61793). Nature of the data set: In vivo antagonist activity at LPA1 receptor in C57BL/6J mouse assessed as inhibition of LPA-induced histamine release from mast cells at 30 mg/kg, po administered via gavage and measured after 8 hrs by enzyme immunoassay relative to control. Type of data set: functional, organism-based.

Data set [24] is filed under the species Mus musculus. Nature of the data set: animal or person. The following applies: C57BL/6, po, 672 h, read-out: INH. The source holds these as a separate data set.
Description: Anti-fibrotic activity in C57BL/6 mouse model of bleomycin-induced skin fibrosis assessed as inhibition of collagen production by measuring reduction in hydroxyproline content at 10 mg/kg, po administered twice daily via gavage for 28 days measured post last dose relative to control
The species named for data set [25] is Mus musculus. Briefly: animal or person. The following applies: C57BL/6, po, 672 h, read-out: INH. This is another data set of the same source.
Description: Anti-fibrotic activity in C57BL/6 mouse model of bleomycin-induced skin fibrosis assessed as inhibition of collagen production by measuring reduction in hydroxyproline content at 2 mg/kg, po administered once daily via gavage for 28 days measured post last dose relative to control

Each structure is given as a SMILES string.

Sequence of Lysophosphatidic acid receptor 1 (Mus musculus) (P61793 whole entry): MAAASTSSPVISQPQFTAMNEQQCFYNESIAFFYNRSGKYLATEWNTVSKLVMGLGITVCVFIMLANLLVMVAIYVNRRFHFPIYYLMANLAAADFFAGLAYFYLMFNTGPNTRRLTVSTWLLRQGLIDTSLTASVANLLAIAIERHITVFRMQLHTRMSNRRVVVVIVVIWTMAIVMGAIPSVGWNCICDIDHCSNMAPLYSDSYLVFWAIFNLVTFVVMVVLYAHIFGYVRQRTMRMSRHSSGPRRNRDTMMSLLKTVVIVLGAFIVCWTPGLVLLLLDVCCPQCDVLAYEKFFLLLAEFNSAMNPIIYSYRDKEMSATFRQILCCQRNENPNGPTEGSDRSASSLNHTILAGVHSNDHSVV
Sequence of Lysophosphatidic acid receptor 1 (Q92633 whole entry): as the sequence (P61793 whole entry) above, with A4I, S8I, Q22P, Y40H, V61I, D193E, H194N, V269I, N331S, N335T counted along it

For the compound `COc1cc([C@H](C)N(CCCCc2ccccc2)C(=O)NC2(C(=O)O)CC(F)(F)C2)cc(OC)c1C`, the IC50 – broadly, the concentration needed to halve the response being measured – in data set [1] came out at 470 nM.
Still for that read-out and setting: the same measure for `COc1cc(CN(CCCCc2ccccc2)C(=O)NC2(C(=O)O)CCCCC2)cc(OC)c1C`: 2150 nM.
The same measure, in the same setting: the same measure for `COc1cc(CN(CCCCc2ccccc2)C(=O)NC(C)(C)C(=O)O)cc(OC)c1C`: 2140 nM.
In the case of `COc1cc([C@@H](C)N(CCCCc2ccccc2)C(=O)NC2(C(=O)O)CC(F)(F)C2)cc(OC)c1C`, the inhibition (commonly the change of the read-out against control, counted positive when it falls) in data set [2] is 77%; in [4], 58%; in data set [5], 36%; in data set [8], 2%; in the data set with Mus musculus [12], “Dose-Dependent Effect”; in data set [16] it was 95%. The inhibition stood at 66% in data set [18], 94% in data set [19], 94% in data set [20] and 44% in data set [23]. Also, in the data set filed under Mus musculus [3], the inhibition in vivo at 100 mg/kg was determined as 77%. Moreover, the concentration at 8 h stood at 175 ng/mL in data set [6], 2460 ng/mL in [7] and 596 ng/mL in data set [21]. Moreover, the concentration at 4 h in data set [9] was 805 ng/mL; in data set [13], 252 ng/mL; in [14], 7160 ng/mL. Further, in the data set filed under Mus musculus [10], the inhibition in vivo at 30 mg/kg is 49%. For the same compound, in the data set on Mus musculus [11], the Activity result was “Dose-Dependent Effect”. For the same compound, the results for the concentration at 1 h in data set [15], in [17] and in data set [22] were 4240 ng/mL, 12100 ng/mL and 892 ng/mL, respectively. Moreover, the inhibition in vivo at 10 mg/kg in the data set listed under Mus musculus [24] came out at 22%.
Regarding `COc1cc([C@@H](C)N(CCCc2ccccc2)C(=O)NC2(C(=O)O)CC(F)(F)C2)cc(OC)c1C`, the IC50 in [1] is 51.4 nM.
As to `COc1cc(CN(CCCCc2ccccc2)C(=O)NC2(C(=O)O)CC2)cc(OC)c1C`, the IC50 in data set [1] was determined as 2750 nM.
`COc1cc([C@@H](C)N(CCCCCc2ccccc2)C(=O)NC2(C(=O)O)CC(F)(F)C2)cc(OC)c1C`: in [1], the IC50 was 586 nM.
For the compound `COc1cc(CN(CCCCc2ccccc2)C(=O)NC2(C(=O)O)CCCC2)cc(OC)c1C`, in [1], the IC50 turned out to be 1790 nM.
Turning to `COc1cc(CN(CCCCc2ccccc2)C(=O)N[C@H](CC(C)C)C(=O)O)cc(OC)c1C`, the IC50 in [1] was 3660 nM.
Turning to `C[C@]12C=CC(=O)C=C1CC[C@@H]1[C@@H]2C(=O)C[C@@]2(C)[C@H]1CC[C@]2(O)C(=O)CO` [PREDNISONE], in the data set listed under Mus musculus [25], the inhibition in vivo at 2 mg/kg amounted to 63%.

The values are drawn from ChEMBL document CHEMBL5625238, “Lead generation from N-[benzyl(4-phenylbutyl)carbamoyl]amino acid as a novel LPA1 antagonist for the treatment of systemic sclerosis” (Eur J Med Chem, 2023).
